In paper PMC11117661, “Development of a Novel In Silico Classification Model to Assess Reactive Metabolite Formation in the Cysteine Trapping Assay and Investigation of Important Substructures” (Biomolecules, 2024):

Experiment: not given
Details: human, 2 h, 20 µM, pH 7.4

Row | RI integrated area [count] | SMILES
1 | 243.5 | Nc1c2c(nc3ccccc13)CCCC2 [Tacrine]

Experiment: cysteine trapping assay ([35S]cysteine, HPLC with radiomatic detector) for reactive metabolites
Details: human liver microsome 2 mg/mL, L-[35S]-Cysteine, NADPH, 37 °C, 2 h
Procedure: The reagents for making the reaction solution were phosphate buffer (pH 7.4; 100 mM), ethylenediaminetetraacetic acid (EDTA; 1 mM) (Tokyo Kasei, Tokyo, Japan), MgCl2 hexahydrate (Fuji Film Wako Co., Ltd., Osaka, Japan, reagent special grade; 3 mM), glucose-6-phosphate (G6P; 5 mM) (Roche, Basel, Switzerland), G6P dehydrogenase (G6PDH; 1 IU) (Oriental Yeast Co., Ltd., Tokyo, Japan), human liver microsome solution (Xenotech, Kansas City, MO, USA; 2 mg/mL), and L-[35S]-Cysteine (PerkinElmer Japan Co., Ltd., Kanagawa, Japan; 3.7 MBq/mL), which were prepared using ultrapure water. The evaluation compound was dissolved in dimethyl sulfoxide (DMSO) and its concentration was adjusted to 4 mM. This was used as a substrate solution.
On ice, 239 µL of the reaction solution was dispensed into a glass tube and then 1.25 µL of the substrate solution was added, mixed, and placed in a water bath (PERSONAL-11, Taitec Co., Ltd., Saitama, Japan) at 37 °C. After pre-incubation for 5 min, 10 µL of 25 mM nicotinamide adenine dinucleotide phosphate (NADPH) (Roche, Basel, Switzerland) solution was added and mixed to a final concentration of 20 µM to initiate a metabolic reaction and incubated in a water bath at 37 °C for 2 h. After incubation, 500 µL of acetonitrile was added and mixed, and the tube was chilled on ice to deproteinize, after which 50 µL of 250 mM GSH solution was added and mixed to stop the reaction, and centrifuged (approximately 1500× g, 4°C, 10 min, CF16RXII, Hitachi, Ltd., Tokyo, Japan). After centrifugation, 750 µL of the supernatant was transferred to a new glass tube and concentrated by vacufugation (VC-96N, Taitec Co., Ltd., Saitama, Japan) for 2 h. After concentrating the solution, we added 100 µL of the redissolving solution (40% methanol solution), mixed it with a vortex (IS-MBI minimixer, Ikeda Rika Co., Ltd., Tokyo, Japan) to redissolve, and then the sample was placed in a filter tube [Merck Millipore, Darmstadt, Germany] and centrifuged (approximately 5000× g, room temperature, 10 min).
Both High Performance Liquid Chromatography (HPLC) (Nexera XR, Shimadzu Corporation, Kyoto, Japan) and a radiomatic detector (Radiomatic 610TR, PerkinElmer Japan Co., Ltd.) were used to analyze the prepared samples. The 35S content was detected by running the separated sample via the 45-min analytical method through a radiomatic detector. The mobile phase was composed of a gradient of 0.1% (v/v) formic acid/water and 0.1% (v/v) formic acid/acetonitrile, and the chromatographic separation was performed using a column (Synergi 4 μm Hydro-RP 80A 150 × 3.00 mm, Phenomenex, Torrance, CA, USA).
Considering this, the amount of covalent binding in microsomes in the in vitro covalent binding test of 50 pmol/g or more was judged as a risk. The threshold of the total RI integrated area in cysteine trapping at that time was about 1000 counts. Therefore, we labeled compounds with more than 1000 counts of RI integrated area as positive, and those with less than 1000 counts as negative.

Row | SMILES | RI integrated area [count]
2 | Cc1c(N(C)C)c(=O)n(-c2ccccc2)n1C [Aminopyrine] | 44.3
3 | CCN(CC)Cc1cc(Nc2ccnc3cc(Cl)ccc23)ccc1O [Amodiaquine] | 346.7
4 | CCc1oc2ccccc2c1C(=O)c1cc(Br)c(O)c(Br)c1 [Benzbromarone] | 4516.4
5 | Cn1c(=O)c2c(ncn2C)n(C)c1=O [Caffeine] | 22.4
6 | NC(=O)N1c2ccccc2C=Cc2ccccc21 [Carbamazepine] | 61.8
7 | COC(=O)[C@H](c1ccccc1Cl)N1CCc2sccc2C1 [Clopidogrel] | 708.2
8 | O=C(O)Cc1ccccc1Nc1c(Cl)cccc1Cl [Diclofenac] | 1230.1
9 | CNCCC(Oc1ccc(C(F)(F)F)cc1)c1ccccc1 (stereo not shown) [Fluoxetine] | 153.8
10 | CC(C)C(=O)Nc1ccc([N+](=O)[O-])c(C(F)(F)F)c1 [Flutamide] | 680.4
11 | COc1ccc2c(c1)c(CC(=O)O)c(C)n2C(=O)c1ccc(Cl)cc1 [Indomethacin] | 89.0
12 | C[C@H]1COc2c(N3CCN(C)CC3)c(F)cc3c(=O)c(C(=O)O)cn1c23 [Levofloxacin] | 150.3
13 | O=C1NC(=O)C(c2ccccc2)(c2ccccc2)N1 [Phenytoin] | 34.7
14 | CCc1ccc(CCOc2ccc(CC3SC(=O)NC3=O)cc2)nc1 (stereo not shown) [Pioglitazone] | 105.8
15 | CC[C@H](C)C(=O)O[C@H]1C[C@H](O)C=C2C=C[C@H](C)[C@H](CC[C@@H](O)C[C@@H](O)CC(=O)O)[C@H]21 [Pravastatin] | 25.4
16 | CC(C)NCC(O)COc1cccc2ccccc12 (stereo not shown) [Propranolol] | 3667.2

Further lines, results first:

Row | RI integrated area [count] | SMILES
17 | 593.9 | CC(C)c1nc(CN(C)C(=O)N[C@H](C(=O)N[C@@H](Cc2ccccc2)C[C@H](O)[C@H](Cc2ccccc2)NC(=O)OCc2cncs2)C(C)C)cs1 [Ritonavir]
18 | 1593.7 | CN(CCOc1ccc(CC2SC(=O)NC2=O)cc1)c1ccccn1 (stereo not shown) [Rosiglitazone]
19 | 162.1 | CC/C(=C(\c1ccccc1)c1ccc(OCCN(C)C)cc1)c1ccccc1 [Tamoxifen]
20 | 3783.7 | O=C(O)COc1ccc(C(=O)c2cccs2)c(Cl)c1Cl [Tienilic acid]
21 | 521.7 | Cc1c(C)c2c(c(C)c1O)CCC(C)(COc1ccc(CC3SC(=O)NC3=O)cc1)O2 (stereo not shown) [Troglitazone]
22 | 263.4 | COc1cc(C(=O)NS(=O)(=O)c2ccccc2C)ccc1Cc1cn(C)c2ccc(NC(=O)OC3CCCC3)cc12 [Zafirlukast]
23 | 217.5 | Cc1cc(CC(=O)O)n(C)c1C(=O)c1ccc(Cl)cc1 [Zomepirac]

Same assay, conditions: threshold area 1000

Row | outcome in the cysteine trapping assay | SMILES
24 | negative | CCc1ccc(CCOc2ccc(CC3SC(=O)NC3=O)cc2)nc1 (stereo not shown) [Pioglitazone]
25 | negative | Cc1c(C)c2c(c(C)c1O)CCC(C)(COc1ccc(CC3SC(=O)NC3=O)cc1)O2 (stereo not shown) [Troglitazone]
